Assay results as given in patent publication US12404304B1, “Telomerase reverse transcriptase (TERT) expression enhancing compounds and methods for using the same” (Sierra Sciences, LLC, priority 2007, dated 2025).

How the values were obtained:
viable cells in culture = experiment: Cell viability assay (CellTiter-Glo Luminescent Cell Viability Assay, ATP quantitation, percent of vehicle control)
Procedure: Cell viability is determined using a homogeneous method, such as CellTiter-Glo® Luminescent Cell Viability Assay (Promega Corporation, Madison, WI.) to determine the number of viable cells in culture These assays are based on quantitation of the ATP present, which signals the presence of metabolically active cells. Luminescent values of compound treated cells are compared to that of cells treated with vehicle alone to determine the average cell viability as a percent of control.

[1] = system: human TERT expression (hTERT mRNA); experiment: Quantitative real-time RT-PCR of hTERT mRNA expression (Ct, transcripts) in compound-treated cells; assay type: cell-based; settings: quantitative real-time RT-PCR
Method in brief: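 Read-out is cycle threshold, the cycle at which probe fluorescence released by Taq 5′-nuclease activity crosses a set level; Ct falls as hTERT mRNA rises. cDNA of treated and untreated cells was compared, with starting transcripts quantified against a known-cDNA standard curve.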

Row | Compound | Average Cell Viability after 24 Hours (% DMSO) (viable cells in culture) | Average Number of hTERT Transcripts [1]
1 | Cc1nn2c(=O)c(Cc3cccc(Cl)c3)c(C)[nH]c2c1-c1ccccc1 [compound 1166] | 77.99 | 152.34
2 | CCCCc1c(C)[nH]c2c(-c3ccc(Cl)cc3)c(C)nn2c1=O [compound 1167] | 97.27 | 66.71
3 | Cc1ccc(SCc2cc(=O)n3nc(C)c(-c4ccc(F)cc4)c3[nH]2)cc1 [compound 1168] | 63.67 | 79.80
4 | Cc1nn2c(=O)cc(-c3ccc(F)cc3)[nH]c2c1-c1ccccc1 [compound 1169] | 56.42 | 122.92
5 | COc1ccc2sc(Nc3nc(C)n(-c4ccccc4)c(=O)n3)nc2c1 [compound 1170] | 36.74 | 102.53
6 | O=C(Nc1nc(-c2ccccn2)cs1)c1ccc(Br)s1 [compound 1171] | 56.61 | 22.66
7 | COc1cc(OC)cc(C(=O)Nc2nc(-c3ccccn3)cs2)c1 [compound 1172] | 88.81 | 28.72
8 | O=C(Nc1nc(-c2ccccn2)cs1)c1cccc(S(=O)(=O)N2CCOCC2)c1 [compound 1173] | 86.99 | 43.63
9 | O=C(Nc1nc(-c2ccccn2)cs1)c1cccc(S(=O)(=O)N2CCCCC2)c1 [compound 1174] | 73.06 | 12.12
10 | CCCN(CCC)S(=O)(=O)c1cccc(C(=O)Nc2nc(-c3ccccn3)cs2)c1 [compound 1175] | 74.43 | 29.54
11 | COc1ccc(-c2nnc(NC(=O)c3ccc(Cl)cc3)o2)cc1 [compound 1178] | 83.07 | 63.78
12 | O=C(NCCCn1ccnc1)c1cc(-c2ccc(F)cc2)on1 [compound 1179] | 97.79 | 3.70
13 | CCCNC(=O)c1cc(-c2ccc(F)cc2)on1 [compound 1180] | 81.47 | 56.10
14 | CCCCNC(=O)c1cc(-c2ccc(F)cc2)on1 [compound 1181] | 85.44 | 24.74
15 | C=CCNC(=O)c1cc(-c2ccc(F)cc2)on1 [compound 1182] | 87.44 | 19.03
16 | O=C(NCCCN1CCOCC1)c1cc(-c2cccs2)on1 [compound 1183] | 88.76 | 37.61
17 | O=C(NC1CCCC1)c1cc(-c2cccs2)on1 [compound 1184] | 88.36 | 73.49
18 | O=C(NCCc1ccccc1)c1cc(-c2cccs2)on1 [compound 1185] | 80.02 | 20.89
19 | O=C(NCCCn1ccnc1)c1cc(-c2cccs2)on1 [compound 1186] | 94.79 | 367.36
20 | O=C(NCCN1CCOCC1)c1cc(-c2cccs2)on1 [compound 1187] | 95.94 | 61.19
21 | CCCNC(=O)c1cc(-c2cccs2)on1 [compound 1188, 5-thiophen-2-yl-isoxazole-3-carboxylic acid propylamide] | 88.71 | 295.07
22 | CC(C)CNC(=O)c1cc(-c2cccs2)on1 [compound 1189] | 83.26 | 73.15
23 | CCCNC(=O)c1cc(-c2ccco2)on1 [compound 1190] | 96.27 | 41.79
24 | CCCCNC(=O)c1cc(-c2ccco2)on1 [compound 1191] | 95.11 | 164.47

Row | Compound | Average Cell Viability after 24 Hours (% DMSO) (viable cells in culture) | Average Number of hTERT Transcripts [1]
25 | C=CCNC(=O)c1cc(-c2cccs2)on1 [compound 1192] | 95.64 | 279.74
26 | COc1ccc(-c2n[nH]c3c2C(c2ccc(O)cc2)N(c2ccc(Br)cc2)C3=O)cc1 (stereo not drawn) [compound 1193] | 22.74 | 3.56
27 | CCOC(=O)c1ccc(N2C(=O)c3[nH]nc(-c4ccccc4)c3C2c2ccccc2OC)cc1 (stereo not drawn) [compound 1194] | 76.71 | 6.20
28 | Cc1cccnc1Nc1nc(-c2ccccn2)cs1 [compound 1195] | 95.66 | 220.50
29 | COCCNC(=O)c1cc(-c2cccs2)on1 [compound 1196] | 98.07 | 163.15
30 | CCCCNC(=O)c1cc(-c2cccs2)on1 [compound 1197] | 88.24 | 168.54
31 | CCOC(=O)c1ccc(N2C(=O)c3[nH]nc(-c4ccco4)c3C2c2ccc(O)cc2)cc1 (stereo not drawn) [compound 1198] | 64.75 | 104.02
32 | CCOC(=O)c1ccc(N2C(=O)c3[nH]nc(-c4cccs4)c3C2c2ccc(O)c(OCC)c2)cc1 (stereo not drawn) [compound 1199] | 57.55 | 110.78
33 | CCCc1nnc(NC(=O)CSc2nnc(-c3cccs3)o2)s1 [compound 1200] | 74.03 | 198.48
34 | O=C(Nc1nc(-c2ccccn2)cs1)c1nc2ccccc2s1 [compound 1201] | 74.59 | 49.55
35 | O=C(CS(=O)(=O)c1ccccc1)Nc1nc(-c2ccccn2)cs1 [compound 1202] | 72.91 | 141.08
36 | O=C(CS(=O)(=O)c1ccc(F)cc1)Nc1nc(-c2ccccn2)cs1 [compound 1203] | 73.09 | 119.23
37 | O=C(Nc1nc(-c2ccccn2)cs1)C1COc2ccccc2O1 (stereo not drawn) [compound 1204] | 55.98 | 76.87
38 | O=C(Nc1nc(-c2ccccn2)cs1)c1ccc2ncsc2c1 [compound 1205] | 86.42 | 114.55
39 | O=C(NCC1CCCO1)c1cc(-c2cccs2)on1 (stereo not drawn) [compound 1206] | 83.74 | 80.15
40 | CCNC(=O)c1cc(-c2cccs2)on1 [compound 1207] | 87.06 | 275.25
41 | O=C(NC1CC1)c1cc(-c2cccs2)on1 [compound 1208] | 70.93 | 380.09
42 | C=CCN1C(C(=O)c2ccccc2)=C(OC(=O)c2ccc(Cl)cc2)c2ccccc2S1(=O)=O [compound 1209] | 91.26 | 21.73
43 | O=C(CN1C(C(=O)c2ccccc2)=C(O)c2ccccc2S1(=O)=O)c1ccc(Br)cc1 [compound 1210] | 62.70 | 26.56
44 | O=C(CN1C(C(=O)c2ccccc2)=C(N2CCCCC2)c2ccccc2S1(=O)=O)c1ccccc1 [compound 1211] | 81.77 | 52.31
45 | O=C(CN1C(C(=O)c2ccccc2)=C(O)c2ccccc2S1(=O)=O)c1ccccc1 [compound 1212] | 80.54 | 38.44
46 | CCCN1C(C(=O)c2ccccc2)=C(OC(=O)CC)c2ccccc2S1(=O)=O [compound 1213] | 69.85 | 5.90
47 | CCCCN1C(C(=O)c2ccccc2)=C(OC(C)=O)c2ccccc2S1(=O)=O [compound 1214] | 55.08 | 32.75
48 | CCCCN1C(C(=O)c2ccccc2)=C(OC(=O)CC)c2ccccc2S1(=O)=O [compound 1215] | 52.19 | 7.76
